# pIC50: −log10 of the molar value.
# Assays:
# Adenovirus = experiment: Antiviral activity, plaque test in 293A cells; type: cell-based; settings: adenovirus in 293A cells, observation by day
# Method: Experimental method: 4.59 mg of the compound 125 were weighed and put to a 15 mL centrifugal tube with the addition of 10 mL of sterile water, and dissolved via vortex oscillation until there was no obvious yellow particle, then subpackaged and stored at −20° C., 200 μL/piece (concentration: 1 mM); 2.79 mg Cidofovir (molecular weight: 279) were weighed and added to the 15 mL centrifugal tube, dissolved with the addition of 10 mL sterile water, then subpackaged and stored at −20° C., 200 μL/piece (concentration: 1 mM).
# Plaque test: • 1. 293A cells were paved into a 24-well plate with 150,000 cells per well, and cultured at 37° C. for 12-24 h, then used for test after growing to 90%. • 2. 2% low-melting point agarose gel was melted and put to a 56° C. water bath kettle for further use. • 3. Adenovirus having a titer of 10^9 TCID^50/mL was diluted by 10^5 folds; medium in the 24-well plate was removed, and 200 μL of adenoviral diluent was added per well and incubated in a 37° C. 5% CO2 incubator, shaken once every 30 min, and incubated for 1 h in total. • 4. The drug compound 125 to be tested and Cidofovir were double diluted with 2×MEM (16 μL compound 125 was added to 8 mL of 2×MEM, oscillated and mixed well, then 4 mL mixed solution was taken and added to fresh 4 mL of 2×MEM and mixed well, and 5 dilutions were conducted, being 2 μM, 1 μM, 500 nM, 250 nM, and 125 nM, respectively; the maximum concentration of the compound 125 was 1 μM. Similarly, 400 μL Cidofovir was added to 7.6 mL of 2×MEM, oscillated and mixed well, then 4 mL mixed solution was taken and added to fresh 4 mL of 2×MEM and mixed well, and 5 dilutions were conducted, being 50 μM, 25 μM, 12.5 μM, 6.25 μM, and 3.125 μM, respectively); the diluted solution was put at 37° C. for further use. • 4. The viral solution was discarded, and agarose gel preheated at 56° C. was added to 2×MEM by the same volume and mixed well, and then 2 mL of mixed solution was added per well, and incubated at room temperature for 30 min (gel). • 5. […]
# A549 = experiment: In vitro inhibition test for cancer cell proliferation (MTT), A549; type: cell-based; settings: 24 h or 48 h after addition, unit inferred
# HeLa = experiment: In vitro inhibition test for cancer cell proliferation (MTT), HeLa; type: cell-based; settings: 24 h or 48 h after addition, unit inferred
# MCF-7 = experiment: In vitro inhibition test for cancer cell proliferation (MTT), MCF-7; type: cell-based; settings: 24 h or 48 h after addition, unit inferred
# L929 = experiment: In vitro cell proliferation inhibition test (MTT), L929; type: cell-based; settings: 24 h or 48 h after addition, unit inferred
# [1] = tested on: non-small cell lung cancer cell H460; experiment: In vitro proliferation inhibition, H460; type: cell-based; settings: unit inferred
# Method: (§1) Test method: pancreatic cancer cells CFPAC-1 were cultured in a Dalbeco-improved Eagle medium with the addition of 10% FBS and 5% double-antibody. CFPAC-1 cancer cells were inoculated into a 96-well plate for incubation for 24 h; in the following day, test compounds having various concentrations of (100, 20, 10, 1, 0.1, 0.01, and 0.001 μM) and positive control agents were added per well; corresponding volume of fresh medium was added to blank control. After addition for 24 h or 48 h, cell proliferation was evaluated by chromogenic reaction of MTT formazan.
# (§2) In addition, compounds (I), (II), (III), and (IV) of the present invention have good inhibition activity against the proliferation of other cancer cells, including non-small cell lung cancer cell (H460, H1299), liver tumor cell (HepG2), rectal cancer cell (HT29), leukemia cell (CCRF-CEM), prostate cancer cell (PC-3), ovarian carcinoma cell (SKOV-3), melanoma cell (A375), myeloma cell (RPMI-8226), esophageal carcinoma cell (TE-1), pancreatic cancer cell (CFPAC-1, PANC-1, SW1990, ASPC-1, and BXPC-3), bladder cancer cell (5637), and gastric cancer cell (KATO-III).
# [2] = tested on: non-small cell lung cancer cell H1299; experiment: In vitro proliferation inhibition, H1299; type: cell-based; settings: unit inferred
# Method: as §1, §2
# liver tumor cell HepG2 = experiment: In vitro proliferation inhibition, HepG2; type: cell-based; settings: unit inferred
# Method: as §1, §2
# rectal cancer cell HT29 = experiment: In vitro proliferation inhibition, HT29; type: cell-based; settings: unit inferred
# Method: as §1, §2
# leukemia cell CCRF-CEM = experiment: In vitro proliferation inhibition, CCRF-CEM; type: cell-based; settings: unit inferred
# Method: as §1, §2
# [3] = tested on: prostate cancer cell PC-3; experiment: In vitro proliferation inhibition, PC-3; type: cell-based; settings: unit inferred
# Method: as §1, §2
# [4] = tested on: ovarian carcinoma cell SKOV-3; experiment: In vitro proliferation inhibition, SKOV-3; type: cell-based; settings: unit inferred
# Method: as §1, §2
# melanoma cell A375 = experiment: In vitro proliferation inhibition, A375; type: cell-based; settings: unit inferred
# Method: as §1, §2
# myeloma cell RPMI-8226 = experiment: In vitro proliferation inhibition, RPMI-8226; type: cell-based; settings: unit inferred
# Method: as §1, §2
# [5] = tested on: esophageal carcinoma cell TE-1; experiment: In vitro proliferation inhibition, TE-1; type: cell-based; settings: unit inferred
# Method: as §1, §2
# [6] = tested on: pancreatic cancer cells CFPAC-1; experiment: In vitro proliferation inhibition, CFPAC-1; type: cell-based; settings: unit inferred
# Method: as §1, §2
# [7] = tested on: pancreatic cancer cell PANC-1; experiment: In vitro proliferation inhibition, PANC-1; type: cell-based; settings: unit inferred
# Method: as §1, §2
# [8] = tested on: pancreatic cancer cell SW1990; experiment: In vitro proliferation inhibition, SW1990; type: cell-based; settings: unit inferred
# Method: as §1, §2
# [9] = tested on: pancreatic cancer cell ASPC-1; experiment: In vitro proliferation inhibition, ASPC-1; type: cell-based; settings: unit inferred
# Method: as §1, §2
# [10] = tested on: pancreatic cancer cell BXPC-3; experiment: In vitro proliferation inhibition, BXPC-3; type: cell-based; settings: unit inferred
# Method: as §1, §2
# bladder cancer cell 5637 = experiment: In vitro proliferation inhibition, 5637; type: cell-based; settings: unit inferred
# Method: as §1, §2
# [11] = tested on: gastric cancer cell KATO-III; experiment: In vitro proliferation inhibition, KATO-III; type: cell-based; settings: unit inferred
# Method: as §1, §2
# [12] = tested on: CFPAC-1 pancreatic cancer cells; experiment: In vivo inhibition test of cancer cell proliferation, CFPAC-1 transplant; design: species or system Balb/c naked mouse; settings: 7 mg/kg, once every other three days, 7 times; gross tumor volume
# Method: Test method: 3×10^7 CFPAC-1 pancreatic cancer cells were transplanted to subcutaneous tissues of armpit of a Balb/c naked mouse; administration was conducted when the tumor grew to 50-100 mm^3, 100-200 mm^3, and greater than 200 mm^3; the mouse was administered once every other three days, 7 times in total, and 7 mg/kg each time. Normal saline was injected in the control group. Tumor length and diameter were measured by calipers and weight of the moue was weighed until the next day of the final administration. Gross tumor volume was calculated by the following equation:
# gross tumor volume (mm^3)=½×[short diameter (mm)]^2×long diameter (mm)
SMILES,non-CPE blank plaques observed (Adenovirus),pIC50 (A549),pIC50 (HeLa),pIC50 (MCF-7),pIC50 (L929),pIC50 [1],pIC50 [2],pIC50 (liver tumor cell HepG2),pIC50 (rectal cancer cell HT29),pIC50 (leukemia cell CCRF-CEM),pIC50 [3],pIC50 [4],pIC50 (melanoma cell A375),pIC50 (myeloma cell RPMI-8226),pIC50 [5],pIC50 [6],pIC50 [7],pIC50 [8],pIC50 [9],pIC50 [10],also measured
"Nc1ccn(C[C@@H](CO)OCP(=O)(O)O)c(=O)n1 [Cidofovir, reference compound]","4 days later, lots of blank plaques formed by non-CPE could be observed",,,,,,,,,,,,,,,,,,,,
"CC(C)ON=C1c2ccccc2C(=O)c2c1[n+](C)cn2C.[I-] [Compound 127, (E) and (Z)-4-(isopropoxyimino)-1,3-dimethyl-9-oxo-4,9-dihydro-1H-naphthol[2,3-d]imidazole-3-iodide]","5 days later, non-CPE blank plaque also appeared in the low concentration group",7.05,4.60,5.10,4.53,,,,,,,,,,,,,,,,
"CON=C1c2ccccc2C(=O)c2c1[n+](C)cn2C.[I-] [Compound 123, (E) and (Z)-4-(methoxylimino)-1,3-dimethyl-9-oxo-4,9-dihydro-1H-naphthol[2,3-d]imidazole-3-iodide]",,8.15,4.64,5.74,5.42,6.66,6.37,8.00,5.17,6.92,4.87,7.05,5.33,4.04,7.15,8.15,6.12,8.10,8.15,8.40,pIC50 (bladder cancer cell 5637): 7.30; pIC50 [11]: 8.00; proliferation inhibition activity / inhibition ratio [12]: 100%
"CCON=C1c2ccccc2C(=O)c2c1[n+](C)cn2C.[I-] [Compound 124, (E) and (Z)-4-(ethoxylimino)-1,3-dimethyl-9-oxo-4,9-dihydro-1H-naphthol[2,3-d]imidazole-3-iodide]",,8.05,4.95,5.48,5.34,6.47,6.35,7.70,5.10,6.66,4.64,7.00,5.25,4.00,7.10,8.05,6.05,8.05,8.10,8.22,pIC50 (bladder cancer cell 5637): 7.22; pIC50 [11]: 7.70; proliferation inhibition activity / inhibition ratio [12]: 100%
"Cn1c[n+](C)c2c1C(=O)c1ccccc1C2=NOCC1CC1 [Compound 131, (E) and (Z)-4-((cyclopropylmethoxy)imino)-1,3-dimethyl-9-oxo-4,9-dihydro-1H-naphthol[2,3-d]imidazole-3-iodide]",,7.15,4.68,5.00,4.61,,,,,,,,,,,,,,,,
"C[n+]1cn(CC2OCCO2)c2c1/C(=N/O)c1ccccc1C2=O [Compound 107, (E)-1-((1,3-dioxoheterocycle-2-yl)methyl)-4-(hydroxylimino)-3-methyl-9-oxo-4,9-dihydro-1H-naphthol[2,3-d]imidazole-3-iodide]",,6.22,< 4.00,5.01,< 4.00,,,,,,,,,,,,,,,,
